Results reported in PubChem BioAssay (NCI).
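Cells were grown in 96-well plates and exposed to each compound for 48 hours at five concentrations; endpoints were interpolated linearly between bracketing concentrations, or set to the highest concentration if not reached. Abbreviation: GI50, concentration required for 50% inhibition of growth. At the TGI there is no net growth.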

Columns and labels:
Assay in all cases: NCI-60 cell line screen, 48 h
[1] = tested on: HT29 colon
[2] = tested on: BT-549 breast
[3] = tested on: RXF 393 renal
[4] = tested on: UO-31 renal
[5] = tested on: SNB-19 CNS
[6] = tested on: SK-MEL-2 melanoma
[7] = tested on: SN12C renal
[8] = tested on: HCT-15 colon
[9] = tested on: RPMI-8226 leukemia
[10] = tested on: K-562 leukemia
[11] = tested on: SK-OV-3 ovarian
[12] = tested on: MOLT-4 leukemia
[13] = tested on: 786-0 renal
[14] = tested on: DU-145 prostate
[15] = tested on: MCF7 breast
[16] = tested on: SF-539 CNS
[17] = tested on: KM12 colon
[18] = tested on: LOX IMVI melanoma
[19] = tested on: M14 melanoma
[20] = tested on: T-47D breast
[21] = tested on: OVCAR-3 ovarian
[22] = tested on: NCI-H226 lung
[23] = tested on: OVCAR-5 ovarian
[24] = tested on: NCI-H23 lung
[25] = tested on: OVCAR-4 ovarian
[26] = tested on: A549 NSCLC
[27] = tested on: TK-10 renal
[28] = tested on: MALME-3M melanoma
[29] = tested on: SK-MEL-28 melanoma
[30] = tested on: MDA-MB-435

COc1ccc(NC(=O)N/N=C/c2c[nH]c3ccccc23)cc1
GI50 [1]: 357 nM | TGI [1]: 5010 nM | GI50 [2]: 670 nM | TGI [2]: > 62800 nM | GI50 [3]: 1000 nM | TGI [3]: 11300 nM | GI50 [4]: 1870 nM | TGI [4]: > 100000 nM | GI50 [5]: 1830 nM | TGI [5]: > 100000 nM | GI50 [6]: 294 nM | TGI [6]: 28800 nM | GI50 [7]: 1030 nM | TGI [7]: > 56700 nM | GI50 [8]: 384 nM | TGI [8]: > 52700 nM | GI50 [9]: 1090 nM | TGI [9]: 15300 nM | GI50 [10]: 235 nM | TGI [10]: > 77100 nM | GI50 [11]: 1980 nM | TGI [11]: > 100000 nM | GI50 [12]: 502 nM | TGI [12]: 50700 nM | GI50 [13]: 1520 nM | TGI [13]: 28100 nM | GI50 [14]: 2050 nM | TGI [14]: > 64100 nM | GI50 [15]: 610 nM | TGI [15]: > 100000 nM | GI50 [16]: 391 nM | TGI [16]: 2200 nM | GI50 [17]: 448 nM | TGI [17]: > 54500 nM | GI50 [18]: 615 nM | TGI [18]: > 46600 nM | GI50 [19]: 340 nM | TGI [19]: > 100000 nM | GI50 [20]: 1310 nM | TGI [20]: > 100000 nM | GI50 [21]: 380 nM | TGI [21]: 2810 nM | GI50 [22]: 11000 nM | TGI [22]: > 100000 nM | GI50 [23]: 2000 nM | TGI [23]: > 83700 nM | GI50 [24]: 2140 nM | TGI [24]: > 51700 nM | TGI [25]: > 100000 nM | GI50 [26]: 815 nM | TGI [26]: > 100000 nM | GI50 [27]: 7830 nM | TGI [27]: 98200 nM | GI50 [28]: 547 nM | TGI [28]: > 100000 nM | GI50 [29]: 3310 nM | TGI [29]: > 100000 nM | GI50 [30]: 255 nM | TGI [30]: 1890 nM
